From patent publication US9421204B2, “Oligomer modified diaromatic substituted compounds” (priority 2010, dated 2016)
Several values for one entry are separate records, joined by “and”; a condition that tells them apart may be missing. Equal entries are not always repeated. Where two headings read alike, the source gives them in different places.

Legend:
[1] = tested on: NL4-3L100I; test: Anti-HIV cytoprotection assay, drug resistant NL4-3 L100I; format: cell-based; settings: HIV-1 strain NL4-3L100I, CEM-SS cells
Experimental: (§1) Cells were prepared as described above. Virus Preparation—The wild type NL4-3 and drug resistant A17 viruses were obtained from the NIH AIDS Research and Reference Reagent Program and stock virus pools were produced in CEM-SS cells. Amino acid substitutes of L100I, Y181C and P23L were introduced by site-directed mutagenesis into pN L4-3 and stock virus pools were produced in CEM-SS cells. A pretitered aliquot of virus was removed from the freezer (−80° C.) and allowed to thaw slowly to room temperature in a biological safety cabinet. Virus was re-suspended and diluted into tissue culture medium such that the amount of virus added to each well in a volume of 50 μL was the amount determined to yield 85 to 95% cell killing at 6 days post-infection.
(§2) Plate Format—Each plate contains cell control wells (cells only), virus control wells (cells plus virus), drug toxicity wells (cells plus drug only), drug colorimetric control wells (drug only) as well as experimental wells (drug plus cells plus virus). Samples were tested in triplicate with eleven half-log dilutions per compound. Efficacy and Toxicity XTT—Following incubation at 37° C. in a 5% CO2 incubator, the test plates were stained with the tetrazolium dye XTT (2,3-bis(2-methoxy-4-nitro-5-sulfophenyl)-5-[(phenylamino)carbonyl]-2H-tetrazolium hydroxide). XTT-tetrazolium was metabolized by the mitochondrial enzymes of metabolically active cells to a soluble formazan product, allowing rapid quantitative analysis of the inhibition of HIV induced cell killing by anti-HIV test substances. XTT solution was prepared daily as a stock of 1 mg/mL in RPMI1640. Phenazine methosulfate (PMS) solution was prepared at 0.15 mg/mL in PBS and stored in the dark at −20° C. XTTIPMS stock was prepared immediately before use by adding 40 μL of PMS per ml of XTT solution. Fifty microliters of XTT/PMS was added to each well of the plate and the plate was re-incubated for 4 hours at 37° C. Plates were sealed with adhesive plate sealers and shaken gently or inverted several times to mix the soluble formazan product and the plate was read spectrophotometrically at 450/650 nm with a Molecular Devices Vmax plate reader.
(§3) Data Analysis—Raw data was collected from the Softmax Pro 4.6 software and imported into a Excel XLFit4 spreadsheet for analysis by four parameter curve fit calculations. Both antiviral activity and toxicity are calculated.

[2] = tested on: HIV-1RF; test: Anti-HIV-1 cytoprotection assay in CEM-SS cells; format: cell-based
Experimental: Cell Preparation—CEM-SS cells were passaged in T-75 flasks prior to use in the antiviral assay. On the day preceding the assay, the cells were split 1:2 to assure they were in an exponential growth phase at the time of infection. Total cell and viability quantification was performed using a hemocytometer and Trypan Blue dye exclusion. […] The cells were resuspended at 5×10^4 cells per ml in tissue culture medium and added to the drug containing microtiter plates in a volume of 50 μL.
Virus Preparation—The virus used for the assay was the lymphocyte-tropic virus strain HIV-IRF. The virus was obtained from the NIH AIDS Research and Reference Reagent Program and stock virus pools were produced in CEM-SS cells. A pretitred aliquot of virus was removed from the freezer (−80° C.) and allowed to thaw slowly to room temperature in a biological safety cabinet.
(§4) Plate Format—Each plate contains cell control wells (cells only), virus control wells (cells plus virus), drug toxicity wells (cells plus drug only), drug colorimetric control wells (drug only) as well as experimental wells (drug plus cells plus virus). Samples were tested in triplicate with eleven half-log dilutions per compound.
as §2, with “Efficacy and” for “Plate Format—Each plate contains cell control wells (cells only), virus control wells (cells plus virus), drug toxicity wells (cells plus drug only), drug colorimetric control wells (drug only) as well as experimental wells (drug plus cells plus virus). Samples were tested in triplicate with eleven half-log dilutions per compound. Efficacy and”, “hydroxide). XTT-tetrazolium is metabolized by” for “hydroxide). XTT-tetrazolium was metabolized by”, “−20° C. XTT/PMS stock was” for “−20° C. XTTIPMS stock was”, “the soluble fosmazan product and” for “the soluble formazan product and”
Anti-HIV-1 Cytopathic Effects Inhibition Assay Evaluations: Eight compounds were evaluated against the RF strain of HIV-1 in CEM-SS cells using a 12 concentration dose response curve.
as §3

[3] = Toxicity XTT in CEM-SS cells (cytoprotection assay); format: cell-based; settings: human, CEM-SS cells, XTT; read-out: CEM-SS TC50
Experimental: Cell Preparation—CEM-SS cells were passaged in T-75 flasks prior to use in the antiviral assay. On the day preceding the assay, the cells were split 1:2 to assure they were in an exponential growth phase at the time of infection. Total cell and viability quantification was performed using a hemocytometer and Trypan Blue dye exclusion. Cell viability was greater than 95% for the cells to be utilized in the assay. The cells were resuspended at 5×10^4 cells per ml in tissue culture medium and added to the drug containing microtiter plates in a volume of 50 μL.
as §4
as §2, with “Efficacy and” for “Plate Format—Each plate contains cell control wells (cells only), virus control wells (cells plus virus), drug toxicity wells (cells plus drug only), drug colorimetric control wells (drug only) as well as experimental wells (drug plus cells plus virus). Samples were tested in triplicate with eleven half-log dilutions per compound. Efficacy and”, “hydroxide). XTT-tetrazolium is metabolized by” for “hydroxide). XTT-tetrazolium was metabolized by”, “−20° C. XTT/PMS stock was” for “−20° C. XTTIPMS stock was”, “the soluble fosmazan product and” for “the soluble formazan product and”
as §3

[4] = Toxicity XTT in CEM-SS cells (drug resistant strain assay); format: cell-based; settings: human, CEM-SS cells, read-out: TC50 (the source's name)
Experimental: as §1, §2, §3

[5] = tested on: A17K103N/Y181C; test: Anti-HIV cytoprotection assay, drug resistant A17; format: cell-based; settings: HIV-1 strain A17K103N/Y181C, CEM-SS cells
Experimental: as §1, with “cabinet.” for “cabinet. Virus was re-suspended and diluted into tissue culture medium such that the amount of virus added to each well in a volume of 50 μL was the amount determined to yield 85 to 95% cell killing at 6 days post-infection.”
as §2, §3

[6] = tested on: NL4-3Y181C; test: Anti-HIV cytoprotection assay, drug resistant NL4-3 Y181C; format: cell-based; settings: HIV-1 strain NL4-3Y181C; for EC50: CEM-SS cells
Experimental: as §1, §2, §3

[7] = tested on: NL4-3P236L; test: Anti-HIV cytoprotection assay, drug resistant NL4-3 P236L; format: cell-based; settings: HIV-1 strain NL4-3P236L; for EC50: CEM-SS cells
Experimental: as §1, §2, §3

[8] = tested on: NL4-3; test: Anti-HIV cytoprotection assay, wild type NL4-3; format: cell-based, HIV-1; settings: for EC50: HIV-1 strain NL4-3, CEM-SS cells, read-out: EC50
Experimental: as §1, with “cabinet.” for “cabinet. Virus was re-suspended and diluted into tissue culture medium such that the amount of virus added to each well in a volume of 50 μL was the amount determined to yield 85 to 95% cell killing at 6 days post-infection.”
as §2, §3

[9] = tested on: CEM-SS cells; test: Toxicity XTT in CEM-SS cells (drug resistant strain assay); format: cell-based; settings: read-out: TC50 (the source's name)
Experimental: as §1, §2, §3

[10] = Human immunodeficiency virus 1, CEM-SS
[11] = run with HIV-1 strain A17K103N/Y181C
[12] = run with HIV-1 strain NL4-3L100I
[13] = run with HIV-1 strain NL4-3P236L
[14] = run with HIV-1 strain NL4-3Y181C

## Cc1cn([C@H]2C[C@H](N=[N+]=[N-])[C@@H](CO)O2)c(=O)[nH]c1=O [AZT, reference compound]
[1]
  EC50: 0.006 µM
[1]; [10]
  EC50: 0.003 µM
[2]; CEM-SS cells, XTT, read-out: CEM-SS/HIV-1RF EC50
  EC50: 0.01 µM
[2]; Human immunodeficiency virus 1, CEM-SS, CEM-SS cells, XTT, read-out: CEM-SS/HIV-1RF EC50
  EC50: 0.006 µM
[2]; Human immunodeficiency virus 1, CEM-SS, RF strain of HIV-1 in CEM-SS cells, control compound, read-out: EC50
  EC50: 0.006 µM
[3]
  CC50: > 1 µM
[4]; [11]
  CC50: > 0.5 µM
[5]; [10]
  EC50: 0.003 µM
[6]
  EC50: 0.001 µM
[6]; [10]
  EC50: 0.002 µM
[7]
  TI: >71.4 and >50.0

## CC(C)Nc1cccnc1N1CCN(C(=O)c2cc3cc(NS(C)(=O)=O)ccc3[nH]2)CC1 [Delavirdine, N-[2-({4-[3-(propan-2-ylamino)pyridin-2-yl]piperazin-1-yl}carbonyl)-1H-indol-5-yl]methanesulfonamide, reference compound]
[8]; HIV-1 strain NL4-3
  TI: >100.0
[8]
  EC50: 0.01 µM
[8]; Human immunodeficiency virus 1, NL43, CEM-SS
  EC50: 0.005 µM
[4]; [11]
  CC50: > 0.5 µM
[4]; run with HIV-1 strain NL4-3
  CC50: > 0.5 µM
[4]; [12]
  CC50: > 0.5 µM
[4]; [13]
  CC50: > 0.5 µM
[4]; [14]
  CC50: > 0.5 µM
[9]; [11]
  CC50: > 1 µM
[9]; run with HIV-1 strain NL4-3
  CC50: > 1 µM
[9]; [12]
  CC50: > 1 µM
[9]; [13]
  CC50: > 1 µM
[9]; [14]
  CC50: > 1 µM
[5]
  EC50: > 1 µM
[5]; [10]
  EC50: > 0.5 µM
[6]
  TI: >1.7
  EC50: 0.58 µM
[6]; [10]
  EC50: > 0.5 µM
[7]
  TI: >2.0
  EC50: 0.5 µM
[7]; [10]
  EC50: > 0.5 µM
